System: recombinant NL-Rluc virus
Experiment: Inhibition of HIV replication (NL-RLuc virus in MT-2 cells, luciferase readout)
Assay type: cell-based
Settings: 5 days of incubation, 10% FBS
[1] = Human immunodeficiency virus 1, MT2, 120 h

Structure (SMILES)	EC50 [1]	EC50
Cc1cc2c3cc1-c1c([C@H](OC(C)(C)C)C(=O)O)c(C)nc4cc(nn14)-c1cccc(c1)-c1ccccc1CCCCCN3CCO2 [Example 7, (2S)-2-(tert-Butoxy)-2-{4,32-dimethyl-29-oxa-5,7,8,26-tetraazaheptacyclo[24.6.2.1^6,^9.1^10,^14.0^2,^7.0^15,^200^30,^34]hexatriaconta-1(32), 2,4,6(36),8,10(35), 11, 13, 15(20), 16,18,30,33-tridecaen-3-yl}acetic acid]	3510 nM	
Cc1nc2cc3nn2c(c1[C@H](OC(C)(C)C)C(=O)O)N1CCC(C)(/C=C/C=C/CCc2ccccc2-c2cccc-3c2)CC1 [Example 40, (2S)-2-(tert-Butoxy)-2-[(23E,25E)-4,27-dimethyl-1,5,7,8-tetraazahexacyclo[25.2.2.1^6,^9.1^10,^14.0^2,^7.0^15,^20]tritriaconta-2,4,6(33),8,10(32),11,13, 15(20), 16,18,23,25-dodecaen-3-yl]acetic acid]	34 nM	
Cc1ccc2c(c1)-c1cccc(c1)-c1cc3nc(C)c([C@H](OC(C)(C)C)C(=O)O)c(n3n1)N1CCC(C)(CC1)OCCCC(C)C(C)O2 (single isomer, unassigned) [Example 94]		35 nM
Cc1nc2cc3nn2c(c1[C@H](OC(C)(C)C)C(=O)O)N1CCC(C)(CC1)OCCCC[C@H](C)Oc1ccc(Cl)cc1-c1cccc-3c1 [Example 82, (2S)-2-(tert-Butoxy)-2-[(22S)-17-chloro-4,22,28-trimethyl-21,27-dioxa-1,5,7,8-tetraazahexacyclo[26.2.2.1^6,^9.1^10,^14.0^2,^7.0^15,^20]tetratriaconta-2,4,6(34),8,10(33), 11, 13, 15 (20),16,18-decaen-3-yl]acetic acid]	20 nM	
Cc1ccc2c(c1)-c1cccc(c1)-c1cc3nc(C)c([C@H](OC(C)(C)C)C(=O)O)c(n3n1)N1CCC(C)(CC1)OC/C=C\C[C@H](C)O2 [Example 54, (2S)-2-(tert-Butoxy)-2-[(22S,24Z)-4,17,22,28-tetramethyl-21,27-dioxa-1,5,7,8-tetraazahexacyclo[26.2.2.1^6,^9.1^10,^14.0^2,^7.0^15,^20]tetratriaconta-2,4,6(34),8,10(33),11,13,15(20),16,18,24-undecaen-3-yl]acetic acid]	130 nM	
Cc1ccc2c(c1)-c1cccc(c1)-c1cc3nc(C)c([C@H](OC(C)(C)C)C(=O)O)c(n3n1)N1CCC(C)(CC1)OCC=C[C@H](C)O2 [Example 59, (2S)-2-(tert-Butoxy)-2-[(22S)-4,17,22,27-tetramethyl-21,26-dioxa-1,5,7,8-tetraazahexacyclo[25.2.2.1^6,^9.1^10,^14.0^2,^7.0^15,^20]tritriaconta-2,4,6(33),8,10(32),11,13,15(20),16,18,23-undecaen-3-yl]acetic acid]	8 nM	
Cc1nc2cc3nn2c(c1[C@H](OC(C)(C)C)C(=O)O)N1CCC(C)(CC1)OCCCC[C@H](C)Oc1cc(C#N)ccc1-c1cccc-3c1 [Example 87, (2S)-2-(tert-Butoxy)-2-[(22S)-18-cyano-4,22,28-trimethyl-21,27-dioxa-1,5,7,8-tetraazahexacyclo[26.2.2.1^6,^9.1^10,^14.0^2,^7.0^15,^20]tetratriaconta-2,4,6(34),8,10(33), 11, 13, 15 (20),16,18-decaen-3-yl]acetic acid]	9 nM	
Cc1ccc2c(c1)-c1cccc(c1)-c1cc3nc(C)c([C@H](OC(C)(C)C)C(=O)O)c(n3n1)N1CCC(C)(CC1)OCC=CCO2 [Example 33, (2S)-2-(tert-Butoxy)-2-[4,17,27-trimethyl-21,26-dioxa-1,5,7,8-tetraazahexacyclo[25.2.2.1^6,^9.1^10,^14.0^2,^7.0^15,^20]tritriaconta-2,4,6(33),8,10(32),11,13,15(20),16,18,23-undecaen-3-yl]acetic acid]	8 nM	
Cc1cc2c(cc1F)O[C@@H](C)CC=CCOC1(C)CCN(CC1)c1c([C@H](OC(C)(C)C)C(=O)O)c(C)nc3cc(nn13)-c1cccc-2c1 [Example 78, (2S)-2-(tert-Butoxy)-2-[(22S)-18-fluoro-4,17,22,28-tetramethyl-21,27-dioxa-1,5,7,8-tetraazahexacyclo[26.2.2.1^6,^9.1^10,^14.0^2,^7.0^15,^20]tetratriaconta-2,4,6(34),8,10(33),11,13, 15(20), 16,18,24-undecaen-3-yl]acetic acid]	31 nM	
Cc1nc2cc3nn2c(c1[C@H](OC(C)(C)C)C(=O)O)N1CCC(C)(CC1)OCCCC[C@H](C)Oc1cccc(Cl)c1-c1cccc-3c1 [Example 85, (2S)-2-(tert-Butoxy)-2-[(22S)-16-chloro-4,22,28-trimethyl-21,27-dioxa-1,5,7,8-tetraazahexacyclo[26.2.2.1^6,^9.1^10,^14.0^2,^7.0^15,^20]tetratriaconta-2,4, 6(34), 8, 10(33), 11, 13, 15 (20),16,18-decaen-3-yl]acetic acid]	21 nM	
Cc1ccc2c(c1)-c1cccc(c1)-c1cc3nc(C)c([C@H](OC(C)(C)C)C(=O)O)c(n3n1)N1CCC(C)(CC1)OCCCC(C)C(C)O2 (single isomer, unassigned) [Example 93]		95 nM
Cc1nc2cc3nn2c(c1[C@H](OC(C)(C)C)C(=O)O)-c1cc(F)c2c(c1)N(CCCCCc1ccccc1-c1cccc-3c1)CCO2 [Example 16, (2S)-2-(tert-Butoxy)-2-{31-fluoro-4-methyl-29-oxa-5,7,8,26-tetraazaheptacyclo[24.6.2.1^6,^9.1^10,^14.0^2,^7.0^15,^20.0^30,^34]hexatriaconta-1(32),2,4,6(36),8,10(35), 11, 13, 15(20),16,18,30,33-tridecaen-3-yl}acetic acid]	177 nM	
Cc1nc2cc3nn2c(c1[C@H](OC(C)(C)C)C(=O)O)-c1ccc2c(c1Cl)N(CCCCCCOc1ccccc1-c1cccc-3c1)CCO2 [Example 5, (2S)-2-(tert-Butoxy)-2-{35-chloro-4-methyl-21,31-dioxa-5,7,8,28-tetraazaheptacyclo[26.6.2.1^6,^9.1^10,^14.0^2,^7.0^15,^200^32,36]octatriaconta-1(34),2,4,6(38),8,10(37), 11, 13, 15 (20), 16,18,32,35-tridecaen-3-yl}acetic acid]	30 nM	
Cc1nc2cc3nn2c(c1[C@H](OC(C)(C)C)C(=O)O)N1CCC(C)(CC1)OCCCCOc1ccc(Cl)cc1-c1cccc-3c1 [Example 32, (2S)-2-(tert-Butoxy)-2-{17-chloro-4,27-dimethyl-21,26-dioxa-1,5,7,8-tetraazahexacyclo[25.2.2.1^6,^9.1^10,^14.0^2,^7.0^15,^20]tritriaconta-2,4,6(33),8,10(32),11,13,15(20),16,18-decaen-3-yl}acetic acid]	9 nM	
Cc1ccc2c(c1)-c1cccc(c1)-c1cc3nc(C)c([C@H](OC(C)(C)C)C(=O)O)c(n3n1)N1CCC(C)(CC1)OCC=C[C@@H](C)O2 [Example 58, (2S)-2-(tert-Butoxy)-2-[(22R)-4,17,22,2,7-tetramethyl-21,26-dioxa-1,5,7,8-tetraazahexacyclo[25.2.2.1^6,^9.1^10,^14.0^2,^7.0^15,^20]tritriaconta-2,4,6(33),8,10(32),11,13,15(20),16,18,23-undecaen-3-yl]acetic acid]	74 nM	
Cc1nc2cc3nn2c(c1[C@H](OC(C)(C)C)C(=O)O)-c1ccc2c(c1)[C@@H](CC=CCOc1ccccc1-c1cccc-3c1)CCO2 (single isomer, unassigned) [Example 14]	383 nM	

— patent US8906929B2, “Inhibitors of human immunodeficiency virus replication” (priority 2012, dated 2014)
